A melting point compilation (Tetko et al.; mined from patent text by program, amines drawn as free bases though some values may be those of a salt)

Row | melting point | SMILES
1 | 117 to 119 °C | OCCC(=C(c1ccccc1)c1ccccc1)c1ccccc1
2 | 274 to 276 °C | O=c1[nH]c2cc(Cl)cc(Cl)c2c(=O)n1Cc1cccc2ccccc12
3 | 189 to 190 °C | CC(C)(C)C(=O)Nc1ccc2oc3c(c2c1)CCCCCC3
4 | 115 to 117 °C | O=C(O)c1cc2cc(Br)cc(Br)c2nc1NC(Cc1ccccc1)C(=O)O (stereo unspecified)
5 | 210 to 216 °C | Cc1ccc(Nc2nc(-n3nc(C)cc3C)nc3ccccc23)cc1
6 | 152 to 155 °C | CSC(=NC#N)N1CCc2nc(N)sc2C1
7 | 153 to 154 °C | CN1CCN(c2cccc3ccc(Nc4ccc([N+](=O)[O-])cc4[N+](=O)[O-])cc23)CC1
8 | 242 to 243 °C | N#Cc1c(-c2ccc(Cl)cc2)[nH]c(C(F)(F)F)c1Cl
9 | 94 to 95 °C | COc1ccc(-c2cc(C=O)c3occc3c2)cc1
10 | 139 to 141 °C | CCNC(=O)N(C)C1c2ccccc2Oc2ccccc21
11 | 146 to 150 °C | N#Cc1cnccc1CCCOc1cccnc1Oc1cccc(Cl)c1
12 | 208 to 210 °C | COc1ccc(C)cc1NC(=O)Nc1ccc(N2CCN(C(=O)Nc3ccc(N(C)CCO)cc3C)CC2)cc1
13 | 90 to 91 °C | COc1cccc(N2CCN(C[C@H]3COc4ccc5nc(C)ccc5c4O3)CC2)c1
14 | 130 to 133 °C | Nc1cc(Oc2ccc(-c3ccc(Oc4cc(N)cc(C(F)(F)F)c4)cc3)cc2)cc(C(F)(F)F)c1
15 | 54 to 56 °C | CC(=O)c1ccc2c(c1)CCS2(=O)=O
16 | 159 to 163 °C | O=C(CC1CCCCC1)Nc1c(Cl)ccc2nc(CCCNCCCO)ccc12
17 | 149 to 150 °C | COC(=O)c1ccc(=O)n(CCNC(=O)c2cc(Cl)ccc2OC)c1
18 | 108 to 109 °C | O=C1c2ccccc2C(=O)N1Cc1cnc(Cl)s1
19 | 151 to 152 °C | COc1ccc(C2=C(/C=C/C(=O)Oc3ccc([N+](=O)[O-])cc3)CCc3cc(OC)ccc32)cc1
20 | 164 to 167 °C | CCCc1c(OCCCCC2CC(=O)c3ccc(OCC(=O)O)c(CCC)c3O2)ccc(C(C)=O)c1O (stereo unspecified)
21 | 113 to 114 °C | Clc1nc(Cl)nc(Oc2ccccc2)n1
22 | 260 °C | CC(=O)N1CC2(CCN(C(=O)Nc3nnc(-c4ccccc4)s3)CC2)c2ccccc21
23 | 165 to 166 °C | CC(=O)c1ccc(Nc2ccncc2N)cc1

Row | melting point | SMILES
24 | 298 to 299 °C | O=C(O)c1cc2c(c(C(=O)O)c1)NCCC2
25 | 253 to 255 °C | O=C(O)C=Cc1ccc(CCNC(=O)c2ccc(Cl)cc2)cc1
26 | 133 to 138 °C | COc1cc(C=O)ccc1OC(=O)NCCc1ccccc1
27 | 70 to 72 °C | CC(=O)c1cc2c(cc1O)CCCC2
28 | 168 to 170 °C | CCn1ncc(OCc2ccc(C3CCCCC3)cc2)c(Cl)c1=O
29 | 171 to 173 °C | O=C(c1ccc(OCc2ccnc3ccccc23)cc1)[NH+]([O-])C1CCN(Cc2ccccc2)CC1 (stereo unspecified)
30 | 160 to 161 °C | COc1ccc(N2CCOC(c3ccc(C(F)(F)F)cc3)C2)c(-c2ccc(N(C)C)cc2)n1 (stereo unspecified)
31 | 257 °C | N#Cc1c(N2CCN(C(=O)c3cccs3)CC2)c2ccsc2n(Cc2ccccc2)c1=O
32 | 117 to 120 °C | CN(C)S(=O)(=O)c1cccc(NN)n1
33 | 310 to 313 °C | CC1(C)Oc2cc(N)c([N+](=O)[O-])cc2[C@@H](N2CCCC2=O)[C@@H]1O (relative stereo)
34 | 267 to 268 °C | c1ccc2c(=Nc3ccncc3)cc3oc4cc(N5CCCCC5)ccc4nc-3c2c1
35 | 154 to 158 °C | NC1=NS(=O)N=C1NCCCOc1cc(CN2CCCCC2)ccn1 (stereo unspecified)
36 | 200 to 201 °C | CCCCc1ccc(Nc2cc(C)nc3ccc(OC)cc23)cc1
37 | 125 to 126 °C | CCc1noc(-c2ncn(-c3cccc(Cl)c3)c2COC)n1
38 | 245 to 247 °C | CCOC(=O)Nc1nc(-c2ccccc2)c(-c2nc3ccccc3c(=O)n2-c2ccc(C(C)=O)cc2)s1
39 | 142 to 144 °C | C=C1C(C(=O)c2ccccc2)CC(O[Si](c2ccccc2)(c2ccccc2)C(C)(C)C)C1COC(c1ccccc1)(c1ccccc1)c1ccccc1 (stereo unspecified)
40 | 62 to 64 °C | O=Cc1c(Cl)cccc1OC[C@H]1CO1
41 | 90 to 94 °C | COc1ccc(C2(c3ccc(N(C)C)cc3N(C)C)OC(=O)c3cc(N(C)C)ccc32)cc1 (stereo unspecified)
42 | 83.3 °C | Cc1cc(C)cc(C(=O)N2CCC(N3CCC(OC(=O)c4cc(Cl)cc(Cl)c4)CC3)CC2Cc2ccccc2)c1 (stereo unspecified)
43 | 84 to 85.6 °C | COc1ccc(N(C)c2ncnc3occ(C)c23)cc1
44 | 150 to 155 °C | CCOC(=O)P(=O)(O)C(=O)OCC
45 | > 285 °C | Cc1nc(C)c(C(=O)O)c(-c2ccccc2F)c1C(=O)O
46 | 77.5 to 78.5 °C | Cc1ccc(C(=O)CCCl)cc1

Row | melting point | SMILES
47 | 67 to 72 °C | CC(C)C(CO)(CO)[N+](=O)[O-]
48 | 265 to 267 °C | COc1ccc(-c2cc(C)c(=O)[nH]n2)cc1
49 | 160 to 162 °C | NC(=O)C(N)Cc1ccc([N+](=O)[O-])cc1 (stereo unspecified)
50 | 106 °C | CC(C)C(c1ccc(NC(=O)CC(=O)c2ccccc2)c([N+](=O)[O-])c1)n1ccnc1 (stereo unspecified)
51 | 206 to 208 °C | CC1(C)OC(=O)C(C(=O)Nc2ccc(C(F)(F)F)cc2)=C(O)O1
52 | 111 to 115 °C | CC(O)c1ccc(-c2ccc(N)cc2)cc1 (stereo unspecified)
53 | > 300 °C | O=C(O)/C=C/c1ccc(-c2nc3c(=O)n(CC4CCC4)c(=O)n(CC4CCC4)c3[nH]2)cc1
54 | 99 to 100 °C | COc1ccc(CCNC(C)=O)cc1OC
55 | > 300 °C | Cc1nc2c(C)cc(Oc3cnc(N)nc3N)c(C(C)C)c2o1
56 | 230 to 231 °C | O=C1N(Cc2ccccc2)c2cc(Cl)cc(N3CCNCC3)c2S(=O)(=O)N1Cc1cccc(O)c1
57 | 187 to 189 °C | CC1(C)CC(=O)Nc2c(Br)cc3c(c21)OC(CN=[N+]=[N-])C3 (stereo unspecified)
58 | 261 to 263 °C | CON1C(=O)CC2(CCN(C(=O)C3=C(C)NC(C)=C([N+](=O)[O-])C3c3ccccc3C(F)(F)F)CC2)C1=O (stereo unspecified)
59 | 132 to 134 °C | Nc1cc(Br)nn1-c1c(Cl)cc(C(F)(F)F)cc1Cl
60 | 150 °C | CC(c1cc(F)ccc1O)c1cc(Cl)cc(Cl)c1O (stereo unspecified)
61 | 110 to 111 °C | CON(c1ccc(SC)cc1[N+](=O)[O-])S(=O)(=O)c1ccc(C)cc1
62 | 176 to 178 °C | Cc1ccc2c(=O)c3c(oc2c1)CCC(C#N)C3 (stereo unspecified)
63 | 161 to 163 °C | Cc1cnc(CCCCCNc2ncc(Cc3ccc(C)nc3)c(=O)[nH]2)c(N)c1
64 | 159 to 161 °C | CC(C)(C)C(OC(=O)Cl)=C(Oc1ccc(Cl)cc1)n1cncn1
65 | 233 to 236 °C | CCNC1(C(N)=O)C=C2C(=Nc3ccccc32)C=N1 (stereo unspecified)
66 | 217 to 219 °C | Nc1nc(-c2ccc(Cl)cc2)nc(N2CCCC2)n1
67 | 174 to 176 °C | NC(=O)C1(c2ccc(C#Cc3ccccc3)cc2)CC1
68 | 141 to 142 °C | CC[C@H](COC)n1cc(Cl)nc(N2CCc3cc(OC)cc(C#N)c32)c1=O
69 | 108 °C | COc1ccccc1NC(=O)Nc1nc(Nc2ccccc2-c2ccccc2)nc(N(CCC(=O)O)Cc2ccc(F)cc2)n1

Row | SMILES | melting point
70 | Cc1sc(C2=NOC(c3cc(Cl)cc(Cl)c3)(C(F)(F)F)C2)cc1Br (stereo unspecified) | 110 to 112 °C
71 | O=C(NCc1ccc(Cl)cc1)c1cn(Cc2ccccc2)c2sc(CN3CCOCC3)cc2c1=O | 225 to 226 °C
